Assay results published in patent US11931322B2, “Solubilizate with curcumin and optionally at least one other active substance” (priority 2017, dated 2024).

Columns and labels:
Format in all cases: in vivo, Wistar rats
[1] = test system: total antioxidant capacity (TAC); test: Total antioxidant capacity (TAC) in the serum of arthritic rats; conditions: for TAC: serum of arthritic rats, n=8, mean ± SEM
Method: (§1) Prof. Dr. […] from the University of Cairo, Faculty of Pharmacy at the Institute for Pharmacology, performed studies on the anti-inflammatory effect of curcumin and combinations of curcumin with Boswellia or xanthohumol, in each case in the native form and in the solubilized form according to the disclosure. Anti-inflammatory markers and antioxidant capacity were determined. Female Wistar rats with a body weight between 150 and 200 g were exposed to adjuvant induced arthritis according to Pearson et al. (1956). At day 0, the animals were administered 0.1 ml of Freund's Adjuvant (FCA) in the right hind paw, by subplantar injection. The animals were randomly divided into 12 groups of 8 animals each. All extracts or solubilizates were administered orally once daily from day 0 to day 21 following the vaccination with the adjuvant. After day 21, the animals were killed and serum samples were prepared and stored at -80° C. Measurements were made of myeloperoxidase (MPO), C-reactive protein (CRP), total antioxidant capacity (TAC), and thiobarbituratic acid reactive substances (TBARS). Oxidative stress is one of the major factors contributing to joint destruction in rheumatoid arthritis (RA). An increase in the production of so-called “reactive oxygen species (ROS)” leads to a reduced supply of endogenous antioxidants and ultimately results in the destruction of cells. The neutrophil granulocytes released in the rheumatoid joint produce free oxygen radicals which cause increased formation of lipid peroxides manifesting in an increase in serum TBARS. Therefore, an increase in antioxidant status represented by an increase in TAC can be used as an indication of protection against the development of degenerative inflammatory processes. There is an inverse relationship between the levels of TAC and TBARS, a high level of antioxidant capacity TAC corresponds to a low TBARS concentration. The table contains data on the effect of curcumin and Boswellia in native and in solubilized form, administered either alone or in combination with diclofenac in a dose of 3 mg per kg body weight once daily for 21 days, on the antioxidant capacity TAC and the thiobarbituric acid reactive substances TBARS in the serum of arthritic rats (n=8). Indicated are mean values±standard error of the mean (SEM).

[2] = test system: thiobarbituric acid reactive substances (TBARS); test: Thiobarbituric acid reactive substances (TBARS) in the serum of arthritic rats; conditions: for TBARS: serum of arthritic rats, n=8, mean ± SEM
Method: as §1

[3] = test system: myeloperoxidase (MPO); test: Serum myeloperoxidase (MPO) in adjuvant-induced arthritic rats; conditions: both dosages (5 and 10 mg/kg), FIG. 2
Method: (§2) Prof. Dr. […] from the University of Cairo, Faculty of Pharmacy at the Institute for Pharmacology, performed studies on the anti-inflammatory effect of curcumin and combinations of curcumin with Boswellia or xanthohumol, in each case in the native form and in the solubilized form according to the disclosure. Anti-inflammatory markers and antioxidant capacity were determined. Female Wistar rats with a body weight between 150 and 200 g were exposed to adjuvant induced arthritis according to Pearson et al. (1956). At day 0, the animals were administered 0.1 ml of Freund's Adjuvant (FCA) in the right hind paw, by subplantar injection. The animals were randomly divided into 12 groups of 8 animals each. Group 1 was the control group. Group 2 received diclofenac as a reference drug in a dose of 3 mg/kg body weight. Group 3 received native curcumin in a dose of 5 mg/kg body weight. Group 4 received curcumin solubilized according to the disclosure in a dose of 5 mg/kg body weight. Group 5 received native curcumin in a dose of 10 mg/kg body weight, and Group 6 received curcumin solubilized in the same dose. Group 7 received native xanthohumol in a dose of 5 mg/kg body weight, and Group 8 received solubilized xanthohumol in the same dose. Group 9 received a mixture of native curcumin in a dose of 5 mg/kg body weight and native Boswellia extract in a dose of 10 mg/kg body weight. […]

[4] = test system: C-reactive protein (CRP); test: Serum C-reactive protein (CRP) in adjuvant-induced arthritic rats; conditions: 5 and 10 mg/kg, FIG. 1a
Method: as §2

[5] = 10 mg/kg once daily for 21 days
[6] = arthritic rats, both dosages considered

Compound | TAC ([1]; 3 mg/kg once daily for 21 days) [nmol/µL] | TBARS ([2]; 3 mg/kg once daily for 21 days) [nmol/L] | effect on MPO concentration (in words) [3] | TAC ([1]; 5 mg/kg once daily for 21 days) [nmol/µL] | TAC [1, 5] [nmol/µL] | effect on TAC (in words) [1, 6] | effect on rat serum CRP levels (in words) [4] | TBARS ([2]; 5 mg/kg once daily for 21 days) [nmol/L] | TBARS [2, 5] [nmol/L] | effect on the TBARS level (in words) [2, 6]
O=C(O)Cc1ccccc1Nc1c(Cl)cccc1Cl [Diclofenac, diclofenac] | 82.08 ± 2.96 | 7.93 ± 0.84 |  |  |  |  |  |  |  | 
COc1cc(/C=C/C(=O)CC(=O)/C=C/c2ccc(O)c(OC)c2)ccc1O [Native curcumin, curcumin] |  |  | no effect on the MPO levels | 60.31 ± 3.25 | 68.41 ± 1.09 | no significant effect | inhibited rat serum CRP levels in a dose-dependent manner | 11.64 ± 0.39 | 13.18 ± 0.46 | no significant effect
